Results: patent US20040059104A1, “Nucleotide mimics and their prodrugs” (priority 2002, published 2004)
Read-outs that look alike come from different tables or passages of the source.

Key:
CEM cells = test: Cell uptake procedure (intracellular nucleotide levels by HPLC); type: cell-based, Human; conditions: 24 hour incubation, limit of detection about 5 pmol/10^6 cells
Protocol: CEM cells were resuspended in RPMI at 1×10^7 cells/mL. The appropriate amount of each compound was added to well and then 0.5 ml of the cells was aliquoted into the appropriate number of wells of a 24-well plate and incubated the cells at 37° C. Cells were harvested after 24 hours of incubation. To harvest cells they were transferred to a microfuge tube and spun for one minute at high speed. The samples were washed in PBS containing 1 mg/ml BSA and re-centrifuged. The PBS was then aspirated and 200 μL of ice-cold 60% methanol was added to extract the nucleotides. The extracts were incubated overnight at −20° C. The next day the samples were spun at high speed in a microfuge for 20 minutes and the supernatant transferred to clean tubes and dried in the speed vac. After drying the samples were resuspended in 50 μl, filtered, and the samples then directly injected onto the HPLC. The nucleotides were analyzed using reverse phase HPLC with ion-pairing agents for separation of the nucleotides. The procedure was adapted from the following paper: Furman, et al., Proc. Natl. Acad. Sci. USA 1986, 83, 8333-8337.
The limit of detection was estimated to be 5 pmol/10^6 cells.

Escherichia coli = test: Antimicrobial assay, minimal inhibitory concentration; type: cell-based; conditions: Escherichia coli, read-out: E. coli MIC
HIV-1RF = test: Anti-HIV-1 cytoprotection assay in CEM-SS cells; type: cell-based; conditions: Human immunodeficiency virus 1, 144 h; CEM-SS cells infected with HIV-1RF, MOI approximately 0.01, 6 days, MTS; read-out: CEM-SS IC50 (Anti-HIV Screening)
Protocol: (§1) ollowing paper: Structure-Activity and Cross-Resistance unodeficiency Virus Type 1-Specific ckheit, Jr. et al., Antimicrobial Agents and s were evaluated in CEM-SS cell cultures V-1RF at an MOI of approximately 0.01. At he soluble tetrazolium-based dye MTS viability and quantify compound toxicity of metabolically active cells to yield a soluble analysis of cell viability and compound
Efficacy Evaluation in CEM-SS Cells Anti-HIV-1 Cytoprotection Assay
Cell Preparation—CEM-SS cells were passaged in T-75 flasks prior to use in the antiviral assay. On the day preceding the assay, the cells were split 1:2 to assure they were in an exponential growth phase at the time of infection. Total cell and viability quantification was performed using a hemacytometer and trypan blue exclusion. Cell viability was greater than 95% for the cells to be utilized in the assay. The cells were resuspended at 5×10^4 cells/ml in tissue culture medium and added to the drug-containing microtiter plates in a volume of 50 μl.
Virus Preparation—The virus used for these tests was the lymphocytropic virus strain HIV-1RF. This virus was obtained from the NIH AIDS Research and Reference Reagent Program and was grown in CEM-SS cells for the production of stock virus pools. For each assay, a pre-titered aliquot of virus was removed from the freezer (−80° C.) and allowed to thaw slowly to room temperature in a biological safety cabinet. The virus was resuspended and diluted into tissue culture medium such that the amount of virus added to each well in a volume of 50 μl was the amount determined to give between 85 to 95% cell killing at 6 days post-infection.
(§2) At assay termination, the assay plates were stained with the soluble tetrazolium-based dye MTS (CellTiter Reagent Promega) to determine cell viability and quantify compound toxicity. MTS is metabolized by the mitochondrial enzymes of metabolically active cells to yield a soluble formazan product, allowing the rapid quantitative analysis of cell viability and compound cytotoxicity. […] At termination of the assay, 20 μL of MTS reagent was added per well. The microtiter plates were then incubated 4-6 hrs at 37° C. for the HIV cytoprotection assay; the incubation intervals were chosen based on empirically determined times for optimal dye reduction. Adhesive plate sealers were used in place of the lids, the sealed plate was inverted several times to mix the soluble formazan product and the plate was read spectrophotometrically at 490 nm with a Molecular Devices Vmax plate reader.

in vitro = conditions: human, pH 7.4
[1] = Compound toxicity in CEM-SS cells (MTS staining); type: cell-based; conditions: human, read-out: CEM-SS TC50
Protocol: as §1, §2

Compound: [BH3-][P+](O)(OCC1OC(n2cc(C)c(=O)[nH]c2=O)CC1N=[N+]=[N-])OP(=O)(O)C(F)(F)P(=O)(O)O (single isomer, unassigned) [Compound 27-isomer 1, 3′-Azido-3′-deoxythymidine 5′-α-P-borano-β,γ-(difluoromethylene)triphosphate]
- Intracellular levels of 27 (CEM cells; incubation concentration 25 μM): BLD
- Intracellular levels of 27 (CEM cells; incubation concentration 50 μM): 5.6 pmol/10^6 cells
- Intracellular levels of 27 (CEM cells; incubation concentration 100 μM): 10.6 pmol/10^6 cells
- MIC (Escherichia coli; overnight at 37° C., tested 0-200 μg/ml, NA = Not active): 60 µg/mL
- MIC (Escherichia coli; value in brackets beside the μg/ml value): 111 µM
- IC50 (HIV-1RF): 1640 nM
- half-life at 500 μM (in vitro): > 48 h
- CC50 [1]: > 200000 nM
